In article PMC5594551, “Heterogeneous drug penetrance of veliparib and carboplatin measured in triple negative breast tumors” (Breast Cancer Research : BCR, 2017):
Where two headings read alike, the source gives them in different places.

Assay: Veliparib quantified by LC-MS in plasma, TNBC xenograft tumor, muscle and liver of mice
Assay type: in vivo, beige SCID mice
Details: for Median conc. (RSE %) / concentration at 3 h: LC-MS; for concentration at 3 h: beige SCID (Fox Chase), mouse, read-out: Median conc. (RSE %)
Description: Forty-one beige DF mice with severe combined immunodeficiency (SCID) (Fox Chase, strain R035948:1) were implanted with 10^6 MDA-MB-231 (N = 10), HCC70 N = 21) or MDA-MB-436 (N = 10) TNBC cells obtained from the ATCC bilaterally in the mammary fat pads (Fig. 1). When the TNBC xenograft tissue size exceeded 200 mm^3, the mice were randomized across the treatment cohorts. Animals were randomized into veliparib low dose (20 mg/kg), veliparib high dose (60 mg/kg) or placebo + C, introduced via oral gavage three times daily for 3 days (all but the two DCE-MRI study mice). Carboplatin at 60 mg/kg was administered intravenously on day 1 and day 2. Blood samples (50 μL) were obtained at day 2 in ethylenediaminetetraacetic acid (EDTA) containing vials at 0.6, 3 and 5 h after veliparib and carboplatin dose in 15 mice (all xenograft models, Fig. 1). The procedures were approved by the Institutional Animal (IACUC AN092211-01D).
Thirty-nine mice were euthanized approximately 3 h after the last dose of veliparib and 24 h after the last dose of carboplatin; two mice used in the DCE-MRI pilot were euthanized 1.5 h after single-dose administration of veliparib and carboplatin (Fig. 1). Bilateral xenograft tumors and liver and muscle (quadriceps) tissues were harvested. Tissues were cut into three pieces and either embedded in optimum cutting temperature (OCT) formulation or were directly snap frozen in liquid-nitrogen-cooled isopentane and stored at − 80 °C until analysis. […] A separate fresh-frozen portion of each tissue per animal was ground for quantification of veliparib and carboplatin by LC-MS. Method development and details of the techniques are described in Additional file 1a-c. […]
c) Technical aspects of the LC-MS method development.
Plasma samples (50 μl ) were prepared using protein precipitation with acetonitrile. Small tumor samples (average 44 mg) were pulverized using Biopulverizer R (Biospec Bartlesville, OK, USA). Volume and weight of the pulverized tumor was determined. Veliparib was then extracted using cell lysis buffer (Cell Signaling Technology, Danvers, MA,USA), complemented with Halt Protease & Phosphatase (ThermoScientific, Atlanta, GA,USA). Protein precipitation of the tissue lysates was performed with acetonitrile. Oxaliplatin (Tzchem, Framingham, MA,USA) and iniparib (Sigma-Aldrich, Milwaukee, USA) were used as internal standards.
Veliparib/carboplatin quantification:
Carboplatin and veliparib were measured using LC-MS (Applied Biosystem Systems 3200 LC-MS/MS, Toronto, Canada), with electrospray ionization (ESI), using a Xterra® MS C18 3.5 µm column (Waters, Milford, MA, USA). The mobile phase contained 50:50 methanol and water with 0.1%, formic acid.
Concentration of veliparib in tissues were calculated in mg/g and transferred to mg/L by estimating the average density of the livers, muscles and tumors.
Figure S9: Example graph of mass spectrum of veliparib and carboplatin and the internal standards in plasma […]
Method development/validation
The limit of quantification was 15 ng/ml for veliparib and 156 ng/ml for carboplatin. The calibration curves […]
Figure S10) Repetition quantification from two tissue sections of the same animal to show consistence of results when repeating veliparib extraction (performed by LCMS).

- Xenograft tissues below the limit of detection by LC-MS (20 mg/kg dose): 42%
- Median conc. (RSE %) (MDA-MB-231 xenograft tissue, 60 mg/kg): 0.27 (18) mg/L
- Median conc. (RSE %) (MDA-MB-436 xenograft tissue, 60 mg/kg): 0.32 (26) mg/L
- Median conc. (RSE %) (TNBC xenograft tissue (all cell lines), 20 mg/kg, 3 h after last dose): 0.12 (31) mg/L
- Median conc. (RSE %) (TNBC xenograft tissue (all cell lines), 60 mg/kg, 3 h after last dose, 60 mg/kg): 0.36 (12) mg/L
- concentration at 3 h (oral, liver, 60 mg/kg, 3 h after last dose): 1770 ng/mL
- concentration at 3 h (oral, plasma, veliparib 60 mg/kg three times daily, 3 h post dose): 860 ng/mL
- concentration at 3 h (tumor (MDA-MB-231 xenograft), oral, MDA-MB-231 xenograft tissue, 20 mg/kg): 10 ng/mL
- concentration at 3 h (tumor (MDA-MB-231 xenograft), oral, MDA-MB-231 xenograft tissue, 60 mg/kg): 270 ng/mL
- concentration at 3 h (tumor (MDA-MB-436 xenograft), oral, MDA-MB-436 xenograft tissue, 20 mg/kg): 50 ng/mL
- concentration at 3 h (tumor (MDA-MB-436 xenograft), oral, MDA-MB-436 xenograft tissue, 60 mg/kg): 320 ng/mL
- concentration at 3 h (tumor (TNBC xenograft, oral), TNBC xenograft tissue (all cell lines), 60 mg/kg, 3 h after last dose): 360 ng/mL
- Median conc. (RSE %) (liver, 20 mg/kg, 3 h after last dose): 0.47 (20) mg/L
- Median conc. (RSE %) (liver, 60 mg/kg, 3 h after last dose, 60 mg/kg): 1.77 (14) mg/L
- Median conc. (RSE %) (muscle, 20 mg/kg, 3 h after last dose): 0.12 (70) mg/L
- Median conc. (RSE %) (muscle, 60 mg/kg, 3 h after last dose): 0.47 (47) mg/L
- Median conc. (RSE %) (plasma, veliparib 20 mg/kg three times daily, 3 h post dose): 0.19 (10) mg/L
- Median conc. (RSE %) (plasma, veliparib 60 mg/kg three times daily, 3 h post dose): 0.86 (11) mg/L
Structure (SMILES): C[C@]1(c2nc3c(C(N)=O)cccc3[nH]2)CCCN1 [veliparib]
- Median conc. (RSE %) (HCC70 xenograft tissue, 60 mg/kg): 0.43 (16) mg/L
- concentration at 3 h (tumor (HCC70 xenograft), oral, HCC70 xenograft tissue, 20 mg/kg): 130 ng/mL
- concentration at 3 h (tumor (HCC70 xenograft), oral, HCC70 xenograft tissue, 60 mg/kg): 430 ng/mL
